The test system of data set [1] is CRE and non-CRE strains of K. pneumoniae and E. coli. Format: cell-based. The settings on record: standard CLSI assay conditions. How it is done: Bacterial strains were obtained from American Type Culture Collection. K. pneumoniae strains included BAA-1705 (blaKPC-2, hypermucoid), BAA-2146 (blaNDM-1), BAA-700603 (SHV-18, extended spectrum β-lactamase, ESBL), and BAA-1706 (non-CRE reference strain). E. coli strains included BAA-2340 (blaKPC-2), BAA-2471 (blaNDM-1), and ML35 (non-CRE reference strain).
Minimum inhibitory concentration (MIC) assays were performed ± 50% heat-inactivated mouse serum using Clinical and Laboratory Standards Institute (CLSI; document M07-A9) protocols. Bacteria (5 × 10^5 CFU/ml) were incubated with antibiotics or peptide for 20 h at 37 °C, and bacterial growth was determined by A620 using a SpectraMax M5e plate reader.

The subject of data set [2] is Kp-1705. The data set is described as follows: Antibacterial activity of peptide-containing peritoneal fluid. Format: cell-based, K. pneumoniae. The settings on record: Kp-1705 incubated in PF containing 7.5 µg/ml peptide, 1 h, 37 °C, CFU plating. How it is done: (§1) Cryopreserved Kp-1705 was suspended in PBS to a density of ca. 1 × 10^9 CFU/ml, and incubated with saline or 1.25 µg/ml MTD12813 at room temperature for 1 h. Mice (n = 26) were then infected i.p. with 500 µl of saline- or MTD12813- pretreated Kp-1705, and a third cohort (n = 12) received 500 µl i.p. of 1.25 µg/ml MTD12813 immediately following infection with saline treated Kp-1705. Five mice from each cohort were euthanized 4 h p.i., and peritoneal lavage was collected for bacterial burden determination and cytospin preparation. In vitro antibacterial activity of MTD12813 (1.25 μg/ml) -treated cells (1 h; 37 °C) was determined by plating saline or peptide treated cells on TSA plates. Growth kinetics of saline and MTD12813-treated cells was determined by diluting samples from the 1 h incubation mixtures 1:40 into TSB and monitoring growth (620 nm) for 5.5 h at 37 °C. Antibacterial activity of MTD12813 in PF was determined by i.p. injection of naïve male BALB/c mice (n = 5 per group) with 1.25 mg/kg of MTD12813 or saline i.p. (10 ml/kg). […] Peritoneal fluid was clarified by centrifugation at 1200×g and an aliquot used to quantify MTD12813 by LC–MS/MS, as described above. Antimicrobial activity was determined by incubating PF (9:1 vol/vol) with Kp-1705 at a final density of 3 × 10^7 CFU/ml. […]

In data set [3] the test system is plasma cytokines. Kind of data set: Plasma cytokines in uninfected (sham infected) mice. Format: in vivo, BALB/c mice. To be noted: single i.p. 1.25 mg/kg. How it is done:
EDTA-anticoagulated blood was collected aseptically by terminal cardiac puncture and analyzed for complete blood cell count using an Element HT5 hematology analyzer (Heska). Blood plasma and clarified peritoneal lavage were prepared by two-step centrifugation described previously. Plasma cytokine levels were quantified using a mouse-specific MILLIPLEX MAP kit (Millipore Cat# MCYTMAG-70K) as described.
Supplemental Fig. 3. Transient stimulation of cytokines by MTD12813. Sham infected mice were injected i.p with PBS and treated i.p. 1 h later with 1.25 mg/kg MTD12813 (M) or saline (S). Four or 24 h post sham infection, animals were euthanized and plasma samples quantified by multiplex cytokine analysis. P values calculated using ANOVA with Uncorrected Fisher’s LSD comparing saline and […]

A short description of data set [4]: Stability in aqueous media. The class given is physicochemical. To be noted: including acidic solutions as low as pH 2.0; preliminary, data not shown.
For data set [5], the system named is Kp-1705. Kind of data set: Challenge with MTD12813-preincubated Kp-1705, survival. Format: in vivo, BALB/c mice. The procedure:
as §1

SMILES strings stand for the structures. “Also recorded” adds a separate entry of the source. Where a SMILES comes first, the peptide text is derived from it. Bridges are numbered along the chain shown (N, C = ends).

For `CC[C@H](C)[C@@H]1NC(=O)[C@@H]2CSSC[C@H](NC(=O)[C@H]([C@@H](C)CC)NC(=O)[C@@H]3CSSC[C@H](NC1=O)C(=O)N[C@@H](C(C)C)C(=O)NCC(=O)N[C@@H](CCCNC(=N)N)C(=O)NCC(=O)N3)C(=O)N[C@@H](C(C)C)C(=O)N[C@@H](CCCNC(=N)N)C(=O)N[C@@H](CCCNC(=N)N)C(=O)N[C@@H](CCCNC(=N)N)C(=O)N2` [MTD12813] (cyclo(CICVGRGCICVRRR); disulfide 1-10, 3-8), in data set [1], the “MIC against all seven organisms of the panel” value was in the range of 3.13 to 6.25 mg/L. For the same compound, in data set [2], the “bacterial killing in peritoneal fluid containing peptide” value was “no bacterial killing was observed; also recorded: no bactericidal activity”. The “plasma IL-5, IL-6 and CXCL1 versus vehicle” value in data set [3] (4 h collection point) is given as “significantly elevated”. Besides, in data set [3] (24 h), the “plasma IL-5, IL-6 and CXCL1” value was “returned to baseline”. The “stability in aqueous media” value in data set [4] is “exceedingly stable”. Also, the “survival, equal quantity of peptide given immediately following infection” value in data set [5] (0.5 ml of 1.25 µg/ml i.p. after saline-preincubated Kp-1705, n = 12) is “no statistically significant protection”. The “survival after challenge with preincubated bacteria” value in data set [5] (Kp-1705 preincubated 1 h with 1.25 µg/ml MTD12813, 500 µl i.p., n = 26) is on record as “protected”.

The values above are taken from publication PMC8648872, “A host-directed macrocyclic peptide therapeutic for MDR gram negative bacterial infections” (Scientific Reports, 2021).
